pIC50: −log10 of the molar value. Like-named read-outs stand apart in the source and are kept apart here.
Tests used:
EGFR del19/T790M/C797S = EGFR del19/T790M/C797S (Homo sapiens, UniProt P00533, C797S/DEL746-750/T790M); assay: Biochemical EGFR kinase assay (Lance Ultra TR-FRET), triple mutant del19/T790M/C797S; settings: for pIC50: read-out: IC50 del19/T790M/C797S, Km ATP
Procedure, shortened: (§1)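 Enzyme reactions lasted 1 hour at room temperature with test compounds between 0.003 and 10 μM, followed by 10 mM EDTA quench.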

EGFR L858R/T790M/C797S = EGFR L858R/T790M/C797S (Homo sapiens, UniProt P00533, C797S/L858R/T790M); assay: Biochemical EGFR kinase assay (Lance Ultra TR-FRET), triple mutant L858R/T790M/C797S; settings: for pIC50: read-out: IC50 L858R/T790M/C797S, Km ATP
Procedure, shortened: as §1

EGFR del19/C797S = EGFR del19/C797S (Homo sapiens, UniProt P00533, C797S/DEL746-750); assay: Biochemical EGFR kinase assay (Lance Ultra TR-FRET), double mutant del19/C797S; settings: for pIC50: read-out: IC50 del19/C797S, Km ATP
Sequence of EGFR del19/C797S (P00533 with tags, fused parts or gaps DEL746-750/C797S): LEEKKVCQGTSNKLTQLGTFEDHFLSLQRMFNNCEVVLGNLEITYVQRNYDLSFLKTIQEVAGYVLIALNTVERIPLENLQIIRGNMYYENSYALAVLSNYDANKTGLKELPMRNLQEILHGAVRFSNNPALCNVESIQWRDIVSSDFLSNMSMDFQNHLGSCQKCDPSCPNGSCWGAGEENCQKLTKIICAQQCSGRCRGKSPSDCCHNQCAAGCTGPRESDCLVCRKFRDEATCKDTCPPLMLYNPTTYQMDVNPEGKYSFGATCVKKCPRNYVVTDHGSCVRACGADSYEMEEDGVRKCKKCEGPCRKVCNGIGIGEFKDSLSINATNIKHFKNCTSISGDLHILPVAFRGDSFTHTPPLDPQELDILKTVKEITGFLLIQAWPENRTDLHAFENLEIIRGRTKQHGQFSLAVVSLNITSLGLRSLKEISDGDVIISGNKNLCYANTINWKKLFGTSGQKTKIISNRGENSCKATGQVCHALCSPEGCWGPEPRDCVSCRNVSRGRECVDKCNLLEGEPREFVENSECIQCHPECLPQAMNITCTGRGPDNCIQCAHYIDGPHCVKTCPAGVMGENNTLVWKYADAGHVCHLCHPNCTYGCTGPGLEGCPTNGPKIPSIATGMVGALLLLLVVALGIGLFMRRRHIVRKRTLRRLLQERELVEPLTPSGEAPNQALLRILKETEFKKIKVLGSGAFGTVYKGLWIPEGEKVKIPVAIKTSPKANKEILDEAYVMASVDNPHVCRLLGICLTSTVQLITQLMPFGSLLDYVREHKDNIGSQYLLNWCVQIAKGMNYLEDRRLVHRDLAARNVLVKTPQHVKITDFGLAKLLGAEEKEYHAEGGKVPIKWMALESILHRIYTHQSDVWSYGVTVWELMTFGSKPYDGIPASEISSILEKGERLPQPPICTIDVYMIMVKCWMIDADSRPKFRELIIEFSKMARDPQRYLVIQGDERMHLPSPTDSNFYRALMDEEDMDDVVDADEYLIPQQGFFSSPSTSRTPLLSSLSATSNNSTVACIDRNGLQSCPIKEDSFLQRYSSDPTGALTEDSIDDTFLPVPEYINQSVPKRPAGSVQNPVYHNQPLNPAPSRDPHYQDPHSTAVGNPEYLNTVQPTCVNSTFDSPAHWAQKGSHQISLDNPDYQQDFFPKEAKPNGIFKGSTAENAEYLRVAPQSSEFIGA
Procedure, shortened: as §1

EGFR L858R/C797S = EGFR L858R/C797S (Homo sapiens, UniProt P00533, C797S/L858R); assay: Biochemical EGFR kinase assay (Lance Ultra TR-FRET), double mutant L858R/C797S; settings: for pIC50: read-out: IC50 L858R/C797S, Km ATP
Sequence of EGFR L858R/C797S (P00533 25-1210 C797S/L858R): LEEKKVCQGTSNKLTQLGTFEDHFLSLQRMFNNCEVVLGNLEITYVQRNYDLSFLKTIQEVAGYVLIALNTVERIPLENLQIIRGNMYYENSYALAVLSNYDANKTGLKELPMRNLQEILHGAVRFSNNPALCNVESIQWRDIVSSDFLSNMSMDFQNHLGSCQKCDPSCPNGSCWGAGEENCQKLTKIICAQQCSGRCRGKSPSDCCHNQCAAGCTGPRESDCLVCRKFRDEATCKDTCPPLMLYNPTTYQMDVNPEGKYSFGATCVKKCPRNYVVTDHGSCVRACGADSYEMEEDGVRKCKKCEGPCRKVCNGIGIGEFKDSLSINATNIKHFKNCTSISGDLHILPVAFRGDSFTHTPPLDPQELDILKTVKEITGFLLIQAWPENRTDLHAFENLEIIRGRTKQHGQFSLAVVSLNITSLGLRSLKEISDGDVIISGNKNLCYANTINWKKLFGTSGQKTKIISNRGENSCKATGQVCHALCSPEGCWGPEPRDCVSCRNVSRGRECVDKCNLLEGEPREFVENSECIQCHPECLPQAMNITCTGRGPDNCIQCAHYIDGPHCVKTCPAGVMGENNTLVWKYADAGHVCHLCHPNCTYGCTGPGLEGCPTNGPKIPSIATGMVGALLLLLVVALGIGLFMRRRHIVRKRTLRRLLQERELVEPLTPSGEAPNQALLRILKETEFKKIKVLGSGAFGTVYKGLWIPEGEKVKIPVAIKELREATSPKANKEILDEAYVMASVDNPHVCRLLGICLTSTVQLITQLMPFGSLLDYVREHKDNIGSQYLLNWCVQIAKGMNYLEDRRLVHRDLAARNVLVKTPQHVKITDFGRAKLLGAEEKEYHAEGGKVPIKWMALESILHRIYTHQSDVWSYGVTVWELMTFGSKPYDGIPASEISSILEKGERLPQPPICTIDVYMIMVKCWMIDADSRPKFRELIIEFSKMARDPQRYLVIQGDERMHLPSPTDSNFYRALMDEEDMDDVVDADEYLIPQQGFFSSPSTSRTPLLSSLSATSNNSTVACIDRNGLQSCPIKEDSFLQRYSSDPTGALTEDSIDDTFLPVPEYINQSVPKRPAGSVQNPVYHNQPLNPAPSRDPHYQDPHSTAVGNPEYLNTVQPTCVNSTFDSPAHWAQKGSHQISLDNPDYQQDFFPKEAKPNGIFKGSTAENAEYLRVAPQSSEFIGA
Procedure, shortened: as §1

EGFR wildtype (WT) = EGFR wildtype (WT) (Homo sapiens, UniProt P00533); assay: Biochemical EGFR kinase assay (Lance Ultra TR-FRET), wildtype; settings: for pIC50: read-out: IC50 WT, Km ATP
Sequence of EGFR wildtype (WT) (P00533 25-1210): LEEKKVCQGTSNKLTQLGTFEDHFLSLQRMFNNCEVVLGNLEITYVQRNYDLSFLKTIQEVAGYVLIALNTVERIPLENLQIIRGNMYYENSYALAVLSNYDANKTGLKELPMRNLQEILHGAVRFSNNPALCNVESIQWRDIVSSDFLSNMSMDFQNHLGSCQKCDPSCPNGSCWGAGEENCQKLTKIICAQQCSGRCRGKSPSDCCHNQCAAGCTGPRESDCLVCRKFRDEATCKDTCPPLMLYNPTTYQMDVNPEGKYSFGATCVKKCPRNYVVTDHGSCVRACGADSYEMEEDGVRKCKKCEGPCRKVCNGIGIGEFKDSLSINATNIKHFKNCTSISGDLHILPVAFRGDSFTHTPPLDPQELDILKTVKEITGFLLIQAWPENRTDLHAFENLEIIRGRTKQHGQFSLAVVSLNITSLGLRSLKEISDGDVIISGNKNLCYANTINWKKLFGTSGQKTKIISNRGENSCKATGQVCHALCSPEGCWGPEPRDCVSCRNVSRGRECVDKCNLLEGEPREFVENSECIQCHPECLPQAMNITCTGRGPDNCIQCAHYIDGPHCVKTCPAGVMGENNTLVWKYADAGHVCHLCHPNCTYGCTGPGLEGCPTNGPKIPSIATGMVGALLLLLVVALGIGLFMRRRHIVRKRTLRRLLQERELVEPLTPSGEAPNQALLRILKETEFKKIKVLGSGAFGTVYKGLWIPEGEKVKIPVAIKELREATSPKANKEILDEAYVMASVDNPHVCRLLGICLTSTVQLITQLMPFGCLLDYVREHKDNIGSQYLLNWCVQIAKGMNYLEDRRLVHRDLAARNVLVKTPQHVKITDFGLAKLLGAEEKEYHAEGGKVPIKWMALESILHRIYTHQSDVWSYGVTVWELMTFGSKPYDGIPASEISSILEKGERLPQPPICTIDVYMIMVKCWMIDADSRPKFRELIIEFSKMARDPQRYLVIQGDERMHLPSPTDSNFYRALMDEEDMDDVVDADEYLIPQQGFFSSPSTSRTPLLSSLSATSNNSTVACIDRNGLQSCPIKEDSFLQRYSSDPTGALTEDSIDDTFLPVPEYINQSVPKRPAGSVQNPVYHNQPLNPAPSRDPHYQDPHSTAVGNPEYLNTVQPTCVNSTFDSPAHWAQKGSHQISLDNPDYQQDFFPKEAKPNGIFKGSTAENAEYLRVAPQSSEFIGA
Procedure, shortened: as §1

[1] = IC50 del19/T790M/C797S (nM) 100 μM ATP, 100 μM ATP
[2] = IC50 L858R/T790M/C797S (nM) 100 μM ATP, 100 μM ATP
[3] = IC50 del19/C797S (nM) 100 μM ATP, 100 μM ATP
[4] = Km ATP, read-out: IC50 del19/C797S (nM) Km ATP
[5] = IC50 L858R/C797S (nM) 100 μM ATP, 100 μM ATP
[6] = IC50 WT (nM) 100 μM ATP, 100 μM ATP
[7] = Km ATP, read-out: IC50 del19/T790M/C797S (nM) Km ATP
[8] = Km ATP, read-out: IC50 L858R/T790M/C797S (nM) Km ATP
[9] = Km ATP, read-out: IC50 L858R/C797S (nM) Km ATP
[10] = Km ATP, read-out: IC50 WT (nM) Km ATP

Sequence of EGFR del19/T790M/C797S (P00533 with tags, fused parts or gaps DEL746-750/T790M/C797S): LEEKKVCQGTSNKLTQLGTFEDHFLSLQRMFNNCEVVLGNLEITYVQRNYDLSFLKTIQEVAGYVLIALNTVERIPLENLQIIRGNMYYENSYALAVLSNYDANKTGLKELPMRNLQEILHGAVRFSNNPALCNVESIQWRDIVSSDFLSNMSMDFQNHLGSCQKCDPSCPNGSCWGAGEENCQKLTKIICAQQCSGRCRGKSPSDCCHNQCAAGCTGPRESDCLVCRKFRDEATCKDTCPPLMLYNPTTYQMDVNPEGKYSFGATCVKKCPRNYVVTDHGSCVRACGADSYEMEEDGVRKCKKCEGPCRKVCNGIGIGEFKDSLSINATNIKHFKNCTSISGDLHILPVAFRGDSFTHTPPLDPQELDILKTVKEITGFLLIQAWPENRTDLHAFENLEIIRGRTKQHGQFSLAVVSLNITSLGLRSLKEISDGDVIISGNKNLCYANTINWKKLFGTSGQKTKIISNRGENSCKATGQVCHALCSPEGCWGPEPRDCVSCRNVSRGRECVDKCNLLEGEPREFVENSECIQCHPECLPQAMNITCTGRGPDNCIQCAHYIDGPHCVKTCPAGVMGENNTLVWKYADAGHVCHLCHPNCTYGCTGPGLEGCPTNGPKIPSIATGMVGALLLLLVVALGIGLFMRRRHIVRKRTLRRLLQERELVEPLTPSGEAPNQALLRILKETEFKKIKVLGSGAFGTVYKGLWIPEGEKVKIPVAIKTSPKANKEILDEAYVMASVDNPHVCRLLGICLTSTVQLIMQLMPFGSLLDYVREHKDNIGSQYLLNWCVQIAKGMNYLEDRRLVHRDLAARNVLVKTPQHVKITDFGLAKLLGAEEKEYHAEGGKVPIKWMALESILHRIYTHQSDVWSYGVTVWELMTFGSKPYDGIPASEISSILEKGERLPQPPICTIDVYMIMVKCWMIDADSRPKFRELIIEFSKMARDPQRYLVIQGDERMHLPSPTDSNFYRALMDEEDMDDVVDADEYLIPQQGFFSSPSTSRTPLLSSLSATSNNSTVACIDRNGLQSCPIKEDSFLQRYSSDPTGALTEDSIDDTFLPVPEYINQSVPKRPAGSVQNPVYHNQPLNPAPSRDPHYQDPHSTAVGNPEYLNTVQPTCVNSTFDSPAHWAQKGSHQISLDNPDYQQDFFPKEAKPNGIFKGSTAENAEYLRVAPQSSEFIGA

COCn1cc(-c2nccc(Nc3cc(N[C@H]4CC[C@@](C)(O)CC4)c(-c4ccn(C(F)F)n4)cn3)n2)cn1 [Example 310, (1s,4s)-4-((5-(1-(Difluoromethyl)-1H-pyrazol-3-yl)-2-((2-(1-(methoxymethyl)-1H-pyrazol-4-yl)pyrimidin-4-yl)amino)pyridin-4-yl)amino)-1-methylcyclohexan-1-ol]
IC50 (EGFR del19/T790M/C797S; [1]): 4 nM | IC50 (EGFR L858R/T790M/C797S; [2]): 19 nM | IC50 (EGFR del19/C797S; [3]): 36.8 nM | IC50 (EGFR del19/C797S; [4]): 0.1 nM | IC50 (EGFR L858R/C797S; [5]): 237 nM | IC50 (EGFR wildtype (WT); [6]): > 10000 nM

O=S(=O)(C1CC1)n1cc(-c2nccc(Nc3cc(N[C@@H]4CC[C@@H](O)C4)c(-c4ccn(C(F)F)n4)cn3)n2)cn1 [Example 12, (1R,3R)-3-((2-((2-(1-(Cyclopropylsulfonyl)-1H-pyrazol-4-yl)pyrimidin-4-yl)amino)-5-(1-(difluoromethyl)-1H-pyrazol-3-yl)pyridin-4-yl)amino)cyclopentan-1-ol]
IC50 (EGFR del19/T790M/C797S; [1]): 1.2 nM | IC50 (EGFR L858R/T790M/C797S; [2]): 2.8 nM | IC50 (EGFR del19/C797S; [3]): 30 nM | IC50 (EGFR L858R/C797S; [5]): 46.9 nM | IC50 (EGFR wildtype (WT); [6]): > 10000 nM

CN1CCC(n2ccc(-c3cnc(Nc4ccnc(-c5cnn(CC(F)F)c5)n4)cc3N[C@H]3CC[C@@](C)(O)CC3)n2)CC1 [Example 342, (1s,4s)-4-((2-((2-(1-(2,2-Difluoroethyl)-1H-pyrazol-4-yl)pyrimidin-4-yl)amino)-5-(1-(1-methylpiperidin-4-yl)-1H-pyrazol-3-yl)pyridin-4-yl)amino)-1-methylcyclohexan-1-ol]
pIC50 (EGFR del19/T790M/C797S; Km ATP): 9.70 | pIC50 (EGFR L858R/T790M/C797S; Km ATP): 10.00 | pIC50 (EGFR del19/C797S; Km ATP): 8.74 | pIC50 (EGFR L858R/C797S; Km ATP): 8.89 | pIC50 (EGFR wildtype (WT); Km ATP): 8.57

Cn1nc(-c2cnc(Nc3ccnc(-c4cnn(S(=O)(=O)C5CC5)c4)n3)cc2N[C@H]2CC[C@@H](C(C)(C)O)CC2)cc1C(F)(F)F [Example 254, 2-((1s,4s)-4-((2-((2-(1-(Cyclopropylsulfonyl)-1H-pyrazol-4-yl)pyrimidin-4-yl)amino)-5-(1-methyl-5-(trifluoromethyl)-1H-pyrazol-3-yl)pyridin-4-yl)amino)cyclohexyl)propan-2-ol]
IC50 (EGFR del19/T790M/C797S; [1]): 3.9 nM | IC50 (EGFR del19/T790M/C797S; [7]): 3.7 nM | IC50 (EGFR L858R/T790M/C797S; [2]): 6.5 nM | IC50 (EGFR L858R/T790M/C797S; [8]): 1.7 nM | IC50 (EGFR del19/C797S; [3]): 6.5 nM | IC50 (EGFR del19/C797S; [4]): 5.5 nM | IC50 (EGFR L858R/C797S; [5]): 33.5 nM | IC50 (EGFR L858R/C797S; [9]): 18.5 nM | IC50 (EGFR wildtype (WT); [6]): > 10000 nM | IC50 (EGFR wildtype (WT); [10]): 12.9 nM

O=S(=O)(C1CC1)n1cc(-c2nccc(Nc3cc(N[C@H]4CC[C@H](CO)OC4)c(-c4ccn(C(F)F)n4)cn3)n2)cn1 [Example 196, ((2R,5S)-5-((2-((2-(1-(Cyclopropylsulfonyl)-1H-pyrazol-4-yl)pyrimidin-4-yl)amino)-5-(1-(difluoromethyl)-1H-pyrazol-3-yl)pyridin-4-yl)amino)tetrahydro-2H-pyran-2-yl)methanol]
IC50 (EGFR del19/T790M/C797S; [1]): 3.7 nM | IC50 (EGFR L858R/T790M/C797S; [2]): 13.3 nM | IC50 (EGFR del19/C797S; [3]): 131 nM | IC50 (EGFR L858R/C797S; [5]): 9100 nM | IC50 (EGFR wildtype (WT); [6]): > 10000 nM

CCS(=O)(=O)n1cc(-c2nccc(Nc3cc(N[C@H]4CC[C@@](C)(O)CC4)c(-c4ccn(C(F)F)n4)cn3)n2)cn1 [Example 308, (1s,4s)-4-((5-(1-(Difluoromethyl)-1H-pyrazol-3-yl)-2-((2-(1-(ethylsulfonyl)-1H-pyrazol-4-yl)pyrimidin-4-yl)amino)pyridin-4-yl)amino)-1-methylcyclohexan-1-ol]
IC50 (EGFR del19/T790M/C797S; [1]): 0.4 nM | IC50 (EGFR del19/T790M/C797S; [7]): 0.4 nM | IC50 (EGFR L858R/T790M/C797S; [2]): 0.4 nM | IC50 (EGFR L858R/T790M/C797S; [8]): 0.2 nM | IC50 (EGFR del19/C797S; [3]): 0.4 nM | IC50 (EGFR del19/C797S; [4]): 0.5 nM | IC50 (EGFR L858R/C797S; [5]): 4.1 nM | IC50 (EGFR L858R/C797S; [9]): 0.4 nM | IC50 (EGFR wildtype (WT); [6]): 3640 nM | IC50 (EGFR wildtype (WT); [10]): 44.2 nM

Cn1nc(-c2cnc(Nc3ccnc(-c4cnn(S(=O)(=O)C5CC5)c4)c3)nc2N[C@H]2CC[C@@H](F)CC2)cc1C(F)(F)F [Example 371, N^2-(2-(1-(Cyclopropylsulfonyl)-1H-pyrazol-4-yl)pyridin-4-yl)-N^4-((1s,4s)-4-fluorocyclohexyl)-5-(1-methyl-5-(trifluoromethyl)-1H-pyrazol-3-yl)pyrimidine-2,4-diamine]
pIC50 (EGFR del19/T790M/C797S; Km ATP): 9.05 | pIC50 (EGFR L858R/T790M/C797S; Km ATP): 8.74 | pIC50 (EGFR del19/C797S; Km ATP): 7.41 | pIC50 (EGFR L858R/C797S; Km ATP): 7.04 | pIC50 (EGFR wildtype (WT); Km ATP): 5.70

O=S(=O)(C1CC1)n1cc(-c2ncc(F)c(Nc3cc(N[C@H]4CC[C@@H](CCO)CC4)c(-c4ccn(CC(F)F)n4)cn3)n2)cn1 [Example 336, 2-((1s,4s)-4-((2-((2-(1-(Cyclopropylsulfonyl)-1H-pyrazol-4-yl)-5-fluoropyrimidin-4-yl)amino)-5-(1-(2,2-difluoroethyl)-1H-pyrazol-3-yl)pyridin-4-yl)amino)cyclohexyl)ethan-1-ol]
pIC50 (EGFR del19/T790M/C797S; Km ATP): 9.00 | pIC50 (EGFR L858R/T790M/C797S; Km ATP): 8.96 | pIC50 (EGFR del19/C797S; Km ATP): 7.43 | pIC50 (EGFR L858R/C797S; Km ATP): 7.69 | pIC50 (EGFR wildtype (WT); Km ATP): 5.59

O=S(=O)(C1CC1)n1cc(-c2nccc(Nc3cc(N[C@H]4CC[C@](O)(CO)CC4)c(-c4csc(N5CCOCC5)n4)cn3)n2)cn1 [Example 125, (1s,4s)-4-((2-((2-(1-(Cyclopropylsulfonyl)-1H-pyrazol-4-yl)pyrimidin-4-yl)amino)-5-(2-morpholinothiazol-4-yl)pyridin-4-yl)amino)-1-(hydroxymethyl)cyclohexan-1-ol]
IC50 (EGFR del19/T790M/C797S; [7]): 0.7 nM | IC50 (EGFR L858R/T790M/C797S; [8]): 0.4 nM | IC50 (EGFR del19/C797S; [3]): 18.5 nM | IC50 (EGFR del19/C797S; [4]): 20.4 nM | IC50 (EGFR L858R/C797S; [5]): 218 nM | IC50 (EGFR L858R/C797S; [9]): 10.8 nM | IC50 (EGFR wildtype (WT); [6]): > 10000 nM | IC50 (EGFR wildtype (WT); [10]): 144 nM

O=S(=O)(C1CC1)n1cc(-c2cc(Nc3ncc(-c4ccn(C(F)F)n4)c(N[C@H]4CC[C@@H](CO)CC4)n3)ccn2)cn1 [Example 364, ((1s,4s)-4-((2-((2-(1-(Cyclopropylsulfonyl)-1H-pyrazol-4-yl)pyridin-4-yl)amino)-5-(1-(difluoromethyl)-1H-pyrazol-3-yl)pyrimidin-4-yl)amino)cyclohexyl)methanol]
pIC50 (EGFR del19/T790M/C797S; Km ATP): 9.40 | pIC50 (EGFR L858R/T790M/C797S; Km ATP): 9.10 | pIC50 (EGFR del19/C797S; Km ATP): 8.10 | pIC50 (EGFR L858R/C797S; Km ATP): 8.05 | pIC50 (EGFR wildtype (WT); Km ATP): 7.25

CC1(O)CCC(Oc2cc(Nc3ccnc(-c4cnn(S(=O)(=O)C5CC5)c4)n3)ncc2-c2ccn(C(F)F)n2)CC1 (stereo not drawn) [Example 68, 4-((2-((2-(1-(Cyclopropylsulfonyl)-1H-pyrazol-4-yl)pyrimidin-4-yl)amino)-5-(1-(difluoromethyl)-1H-pyrazol-3-yl)pyridin-4-yl)oxy)-1-methylcyclohexan-1-ol]
IC50 (EGFR del19/T790M/C797S; [1]): 0.6 nM | IC50 (EGFR del19/T790M/C797S; [7]): 0.5 nM | IC50 (EGFR L858R/T790M/C797S; [2]): 1.7 nM | IC50 (EGFR L858R/T790M/C797S; [8]): 0.2 nM | IC50 (EGFR del19/C797S; [3]): 6.1 nM | IC50 (EGFR del19/C797S; [4]): 7.3 nM | IC50 (EGFR L858R/C797S; [5]): 55.9 nM | IC50 (EGFR L858R/C797S; [9]): 6.3 nM | IC50 (EGFR wildtype (WT); [6]): > 10000 nM | IC50 (EGFR wildtype (WT); [10]): 95.8 nM

CC(C)n1ccc(-c2cnc(Nc3ccnc(-c4cnn(S(=O)(=O)C5CC5)c4)n3)cc2N[C@H]2CC[C@@H](O)CC2)n1 [Example 82, (1s,4s)-4-((2-((2-(1-(Cyclopropylsulfonyl)-1H-pyrazol-4-yl)pyrimidin-4-yl)amino)-5-(1-isopropyl-1H-pyrazol-3-yl)pyridin-4-yl)amino)cyclohexan-1-ol]
IC50 (EGFR del19/T790M/C797S; read-out: IC50 del19/T790M/C797S (nM) 100 μM ATP, 100 μM ATP): 1.7 nM | IC50 (EGFR L858R/T790M/C797S; read-out: IC50 L858R/T790M/C797S (nM) 100 μM ATP, 100 μM ATP): 1.8 nM | IC50 (EGFR del19/C797S; read-out: IC50 del19/C797S (nM) 100 μM ATP, 100 μM ATP): 2.1 nM | IC50 (EGFR L858R/C797S; read-out: IC50 L858R/C797S (nM) 100 μM ATP, 100 μM ATP): 3.9 nM | IC50 (EGFR wildtype (WT); read-out: IC50 WT (nM) 100 μM ATP, 100 μM ATP): 2410 nM

Cc1nn(CC(F)(F)F)cc1-c1nccc(Nc2cc(N[C@H]3CC[C@@H](CCO)CC3)c(-c3ccn(C(F)F)n3)cn2)n1 [Example 326, 2-((1s,4s)-4-((5-(1-(Difluoromethyl)-1H-pyrazol-3-yl)-2-((2-(3-methyl-1-(2,2,2-trifluoroethyl)-1H-pyrazol-4-yl)pyrimidin-4-yl)amino)pyridin-4-yl)amino)cyclohexyl)ethan-1-ol]
IC50 (EGFR del19/T790M/C797S; [7]): 1.4 nM | IC50 (EGFR L858R/T790M/C797S; [8]): 0.7 nM | IC50 (EGFR del19/C797S; [4]): 13.3 nM | IC50 (EGFR L858R/C797S; [9]): 7.9 nM | IC50 (EGFR wildtype (WT); [10]): 18.8 nM
